Test results taken from patent publication US20130072424A1, “COMPOUNDS AND METHODS FOR PEPTIDE RIBONUCLEIC ACID CONDENSATE PARTICLES FOR RNA THERAPEUTICS” (MARINA BIOTECH, INC., priority 2005, published 2013).
Ends that are not written are not given here.

Legend:
[1] = system: mouse tail fibroblast (MTF) cells; test: siRNA cell-uptake assay and MFI (Cy5-conjugated siRNA, flow cytometry), Examples 14-16; assay type: cell-based
Procedure: As described above, the cell-uptake assay determines the number of cells that receive Cy5-conjugated siRNA when complexed with a peptide. siRNA cell-uptake was assessed by flow cytometry (refer to Example 2 for details). Uptake was expressed as a percentage calculated by dividing the number of cells containing Cy5-conjugated siRNA by the total number of transfected and untransfected cells in culture. Mean Fluorescence Intensity (MFI) was measured by flow cytometry and determined the amount of Cy5-conjugated siRNA found within cells. The MFI value directly correlates with the amount of Cy5-conjugated siRNA within the cell, thus, a higher MFI value indicates a greater number of Cy5-conjugated siRNA within the cells.
The siRNA cell-uptake assay and MFI measurements were performed as described previously in Examples 2 and 3. […]

in vitro = details: mouse, mouse tail fibroblast (MTF) cells
hTNF-α mRNA = test: Knockdown of hTNF-α gene expression by siRNA/peptide complexes in LPS-stimulated human monocytes (branch DNA mRNA); assay type: cell-based; details: human monocytes
Procedure: Specifically, the ability of siRNA/peptide complexes to modulate expression of the human tumor necrosis factor-α (hTNF-α) gene was assessed. The significance of targeting the hTNF-α gene is that it is implicated in mediating the occurrence or progression of rheumatoid arthritis (RA) when over-expressed in human and other mammalian subjects.
Human monocytes were used as a model system to determine the effect of siRNA/peptide complexes on hTNF-α gene expression. Qneg represents a random siRNA sequence and functioned as the negative control. […] A19S21, 21/21 and LC20 are siRNAs that target hTNF-α mRNA.
Healthy human blood was purchased from Golden West Biologicals (CA), the peripheral blood mononuclear cells (PBMC) were purified from the blood using Ficoll-Pague plus (Amersham) gradient. Human monocytes were then purified from the PBMCs fraction using magnetic microbeads from Miltenyi Biotech. Isolated human monocytes were resuspended in IMDM supplemented with 4 mM glutamine, 10% FBS, 1× non-essential amino acid and 1× pen-strep, and stored at 4 C until use.
In a 96 well flat bottom plate, human monocytes were seeded at 100 K/well/100 μl in OptiMEM medium (Invitrogen). Exemplary polynucleotide delivery-enhancing polypeptides were mixed with 20 nM siRNA at a molar ratio of 1 to 5 in OptiMEM medium at room temperature for 5 minutes. At the end of incubation, FBS was added to the mixture (final 3%), and 50 μl of the mixture was added to the cells. The cells were incubated at 37° C. for 3 hours. After incubation, the cells were transferred to V-bottom plate and pelleted at 1500 rpm for 5 min. The cells were resuspended in growth medium (IMDM with glutamine, non-essential amino acid, and pen-strep). After an overnight incubation, the monocytes were stimulated by application of LPS (Sigma) at 1 ng/ml for 3 hours to increase expression of TNF-α expression levels. After induction by LPS, cells were collected as above for mRNA quantification, and supernatant was saved for protein quantification if desired.
For mRNA measurement, branch DNA technology from Genospectra (CA) was used according to manufacturer's specification. To quantitate mRNA level in the cells, both house keeping gene (cypB) and target gene (TNF-α) mRNA were measured, and the reading for TNF-α was normalized with cypB to obtain relative luminescence unit. […]

[2] = system: primary mouse tail fibroblast (MTF) cells; test: Peptide cell-uptake assay (FITC-labeled peptide, flow cytometry); assay type: cell-based; details: for Peptide FITC MFI: relative values
Procedure: The efficacy of the full-length and truncated forms of polypeptide PN73 to enter cells was tested in vitro by a cell-uptake assay with primary mouse tail fibroblast (MTF) cells. The number of cells in culture that receive the FITC-labeled peptide was measured by flow cytometry. The percentage peptide cell-uptake was expressed relative to the total number of cells present in the culture. In addition, the Mean Fluorescence Intensity (MFI) was used to evaluate the quantity of FITC-labeled peptide found within cells. MFI directly correlates with the amount of FITC-labeled peptide within the cell: higher relative MFI value correlates with a greater amount of intracellular FITC-labeled peptides. Peptides were evaluated at 0.63 μM, 2.5 μM and 10 μM concentrations; PN768 was tested at 2 μM, 10 μM and 50 μM. […]

[3] = PN73 mutant series, peptide 0.63 μM
[4] = PN73 mutant series, peptide 1.25 μM
[5] = PN73 mutant series, peptide 2.5 μM
[6] = PN73 mutant series, peptide 5 μM

Compound | % siRNA Cell-Uptake [1, 3] | siRNA Cy5 MFI [1, 3] | % siRNA Cell-Uptake [1, 4] | siRNA Cy5 MFI [1, 4] | % siRNA Cell-Uptake [1, 5] | siRNA Cy5 MFI [1, 5] | % siRNA Cell-Uptake [1, 6] | siRNA Cy5 MFI [1, 6] | viability at 0.63 µM (in vitro) | viability at 1.25 µM (in vitro) | viability at 2.5 µM (in vitro) | viability at 5 µM (in vitro) | % siRNA Cell-Uptake ([1]; peptide 10 μM) | siRNA Cy5 MFI ([1]; peptide 10 μM, relative values) | % Peptide Cell-Uptake ([2]; peptide 10 μM) | Peptide FITC MFI ([2]; peptide 10 μM) | further results
CC(C)C[C@H](NC(=O)[C@@H](NC(=O)[C@H](CCCCN)NC(=O)[C@H](Cc1ccc(O)cc1)NC(=O)[C@@H](NC(=O)[C@H](Cc1ccc(O)cc1)NC(=O)[C@@H](NC(=O)[C@H](CO)NC(=O)[C@H](Cc1ccc(O)cc1)NC(=O)[C@H](CO)NC(=O)[C@H](Cc1ccccc1)NC(=O)[C@H](CCCCN)NC(=O)[C@H](CCCNC(=N)N)NC(=O)[C@H](CO)NC(=O)[C@H](CCCNC(=N)N)NC(=O)[C@H](CCCCN)NC(=O)[C@H](CCCNC(=N)N)NC(=O)[C@H](CCCCN)NC(=O)[C@H](CCCCN)NC(=O)CNC(=O)[C@H](CC(=O)O)NC(=O)[C@H](CCCCN)NC(=O)[C@H](CCCCN)NC(=O)[C@H](CCC(N)=O)NC(=O)[C@H](C)NC(=O)[C@H](CCCCN)NC(=O)[C@@H](NC(=O)[C@@H](NC(=O)[C@H](C)NC(=O)[C@H](CCCCN)NC(=O)[C@H](CCCCN)NC(=O)[C@H](CO)NC(=O)CNC(=O)[C@@H](N)CCCCN)C(C)C)[C@@H](C)O)C(C)C)C(C)C)C(C)C)C(=O)N[C@@H](CCCCN)C(=O)N[C@@H](CCC(N)=O)C(N)=O [PN646] | 67% | 4 | 70% | 10 | 73% | 24 | 88% | 24 | 81% | 85% | 87% | 92% |  |  |  |  | 
KGSFKAVTKAQKKDGKKRKRSFKFSYSVYVYKVLKQ-NH2 [PN647] | 71% | 13 | 74% | 34 | 83% | 39 | 85% | 41 | 85% | 83% | 88% | 87% |  |  |  |  | 
SYSVYVYKVLKQ-GK[EPSILON-5CFG-amide (SYSVYVYKVLKQG-{K(5CF)-Gly-NH2}) [PN653] |  |  |  |  |  |  |  |  |  |  |  |  | 1.7 (10 μM) % | 4 (10 μM) | 95 (10 μM) % | 8 (10 μM) | KD (hTNF-α mRNA; knockdown of hTNF-α mRNA vs Qneg, siRNAs A19S21, 21/21, LC20 at 20 nM, molar ratio 1 to 5): −
CC(C)C[C@H](NC(=O)[C@@H](NC(=O)[C@H](CCCCN)NC(=O)[C@H](Cc1ccc(O)cc1)NC(=O)[C@@H](NC(=O)[C@H](Cc1ccc(O)cc1)NC(=O)[C@@H](NC(=O)[C@H](CO)NC(=O)[C@H](Cc1ccc(O)cc1)NC(=O)[C@H](CO)NC(=O)[C@H](Cc1c[nH]c2ccccc12)NC(=O)[C@H](CCCCN)NC(=O)[C@H](CCCNC(=N)N)NC(=O)[C@H](CO)NC(=O)[C@H](CCCNC(=N)N)NC(=O)[C@H](CCCCN)NC(=O)[C@H](CCCNC(=N)N)NC(=O)[C@H](CCCCN)NC(=O)[C@H](CCCCN)NC(=O)CNC(=O)[C@H](CC(=O)O)NC(=O)[C@H](CCCCN)NC(=O)[C@H](CCCCN)NC(=O)[C@H](CCC(N)=O)NC(=O)[C@H](C)NC(=O)[C@H](CCCCN)NC(=O)[C@@H](NC(=O)[C@@H](NC(=O)[C@H](C)NC(=O)[C@H](CCCCN)NC(=O)[C@H](CCCCN)NC(=O)[C@H](CO)NC(=O)CNC(=O)[C@@H](N)CCCCN)C(C)C)[C@@H](C)O)C(C)C)C(C)C)C(C)C)C(=O)N[C@@H](CCCCN)C(=O)N[C@@H](CCC(N)=O)C(N)=O [PN645] | 68% | 5 | 70% | 11 | 78% | 21 | 88% | 28 | 84% | 89% | 90% | 90% |  |  |  |  | 
CC(C)C[C@H](NC(=O)[C@@H](NC(=O)[C@H](CCCCN)NC(=O)[C@H](Cc1ccc(O)cc1)NC(=O)[C@@H](NC(=O)[C@H](Cc1ccc(O)cc1)NC(=O)[C@@H](NC(=O)[C@H](Cc1c[nH]c2ccccc12)NC(=O)[C@H](Cc1ccc(O)cc1)NC(=O)[C@H](CO)NC(=O)[C@H](CCC(=O)O)NC(=O)[C@H](CCCCN)NC(=O)[C@H](CCCNC(=N)N)NC(=O)[C@H](CO)NC(=O)[C@H](CCCNC(=N)N)NC(=O)[C@H](CCCCN)NC(=O)[C@H](CCCNC(=N)N)NC(=O)[C@H](CCCCN)NC(=O)[C@H](CCCCN)NC(=O)CNC(=O)[C@H](CC(=O)O)NC(=O)[C@H](CCCCN)NC(=O)[C@H](CCCCN)NC(=O)[C@H](CCC(N)=O)NC(=O)[C@H](C)NC(=O)[C@H](CCCCN)NC(=O)[C@@H](NC(=O)[C@@H](NC(=O)[C@H](C)NC(=O)[C@H](CCCCN)NC(=O)[C@H](CCCCN)NC(=O)[C@H](CO)NC(=O)CNC(=O)[C@@H](N)CCCCN)C(C)C)[C@@H](C)O)C(C)C)C(C)C)C(C)C)C(=O)N[C@@H](CCCCN)C(=O)N[C@@H](CCC(N)=O)C(N)=O [PN644] | 67% | 4 | 71% | 8 | 70% | 24 | 83% | 37 | 88% | 90% | 86% | 87% |  |  |  |  | 
YKVLKQ-GK[EPSILON-5CFG-amide [PN651] |  |  |  |  |  |  |  |  |  |  |  |  |  |  | 90 (10 μM) % | 5 (10 μM) | % siRNA Cell-Uptake ([1]; no peptide concentration printed): 0%; siRNA Cy5 MFI ([1]; peptide .65 μM, relative values): 3 (.65 μM)
KGSFKAVTKAQKKFGKKRKRSRKSFSVYVYKVLKQ-NH2 [PN729] | 61% | 4 | 69% | 10 | 79% | 16 | 86% | 30 | 82% | 91% | 92% | 90% |  |  |  |  | 
KRSRKESYSVYVYKVLKQ-GK[EPSILON-5CFG-amide (KRSRKESYSVYVYKVLKQG-{K(5CF)-Gly-NH2}) [PN654] |  |  |  |  |  |  |  |  |  |  |  |  | 27 (10 μM) % | 14 (10 μM) | 95 (10 μM) % | 10 (10 μM) | siRNA knockdown activity of TNF-α mRNA, in words (hTNF-α mRNA; siRNAs A19S21, 21/21 and LC20): moderate knockdown activity for both the A19S21 and 21/21 siRNAs but not for the LC20 siRNA
VYVYKVLKQ-GK[EPSILON-5CFG-amide (VYVYKVLKQG-{K(5CF)-Gly-NH2}) [PN652] |  |  |  |  |  |  |  |  |  |  |  |  | 1.8 (10 μM) % | 5 (10 μM) | 86 (10 μM) % | 5 (10 μM) | 
KVLKQ-GK[EPSILON-5CFG-amide [PN768] |  |  |  |  |  |  |  |  |  |  |  |  |  |  |  |  | % Peptide Cell-Uptake ([2]; peptide 50 µM): 91 (50 µM) %; Peptide FITC MFI ([2]; peptide 50 μM): 9 (50 μM)
